Assay results reported in PubChem BioAssay (NCI).
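Tested at 5 concentrations; 48 h exposure; 96-well plates; endpoints linearly interpolated, else capped at highest concentration. GI50 = concentration required for 50% inhibition of growth. TGI: total growth inhibition.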

Experiments:
Assay in all cases: NCI tumour cell line growth inhibition, 48 h
SR leukemia = tested on: SR leukemia
SK-MEL-5 melanoma = tested on: SK-MEL-5 melanoma
NCI-H460 lung = tested on: NCI-H460 lung
RPMI-8226 leukemia = tested on: RPMI-8226 leukemia
A549 NSCLC = tested on: A549 NSCLC
COLO 205 colon = tested on: COLO 205 colon
PC-3 prostate = tested on: PC-3 prostate
BT-549 breast = tested on: BT-549 breast

Compound | TGI (SR leukemia) [µM] | TGI (SK-MEL-5 melanoma) [µM] | TGI (NCI-H460 lung) [µM] | TGI (RPMI-8226 leukemia) [µM] | TGI (A549 NSCLC) [µM] | TGI (COLO 205 colon) [µM] | TGI (PC-3 prostate) [µM] | GI50 (SR leukemia) [µM] | GI50 (SK-MEL-5 melanoma) [µM] | GI50 (BT-549 breast) [µM] | TGI (BT-549 breast) [µM] | GI50 (NCI-H460 lung) [µM] | GI50 (RPMI-8226 leukemia) [µM] | GI50 (A549 NSCLC) [µM] | GI50 (COLO 205 colon) [µM] | GI50 (PC-3 prostate) [µM]
COc1cc(OC)c2nc(C)c3c(c2c1)SCC3 | 52.2 | 49.8 | 54.3 | 64.4 | 40.9 | > 100 | 53.1 | – | – | – | – | – | – | – | – | –
COc1cc(C(=O)c2c(-c3ccccc3)oc3c(OC)cccc23)cc(OC)c1OC | > 100 | 0.733 | > 100 | > 100 | > 100 | 0.485 | > 100 | 0.0363 | 0.157 | 0.154 | 1.5 | 0.0518 | 0.112 | 0.0736 | 0.123 | 0.0557
O=C1NNC2(C(=O)N1)c1ccccc1-c1ccccc12 | > 10 | > 10 | > 10 | > 10 | > 10 | > 10 | > 10 | – | – | – | > 10 | – | – | – | – | –
COc1cccc(-c2c[nH]c3c(N/N=C/c4ccncc4)ncnc23)c1 | > 24.1 | 3.91 | 5.89 | 14.4 | 10.1 | 4.39 | > 25 | 0.872 | 0.809 | 4.89 | 18.5 | 1.4 | 5.62 | 2.67 | 1.2 | 4.53
Cn1ncnc1[C@H]1c2n[nH]c(=O)c3cc(F)cc(c23)N[C@@H]1c1ccc(F)cc1 | > 100 | > 100 | > 100 | > 100 | > 100 | > 100 | > 100 | 0.0417 | > 100 | > 87.1 | > 100 | 0.0354 | > 100 | 6.96 | > 100 | > 100
O=C1Nc2ccc(Br)cc2C1=Nc1cccnc1 | – | 31.8 | > 100 | 60.9 | > 100 | > 100 | 41.2 | – | – | – | 33.2 | – | – | – | – | –
O=C1C(Nc2ccc(Cl)cc2)=C(I)C(=O)c2ncccc21 | 2.28 | 2.91 | – | 5 | 9.48 | 2.79 | 2.6 | 0.301 | 1.55 | 2 | 4.72 | – | 1.33 | 2.75 | 1.32 | 1.12
C#CC#CC#CC#CC#CC#CC#CC#CCC1OCC(COC(=O)O[C@@H](C(=O)O[C@H]2C[C@@]3(O)[C@@H](OC(=O)c4ccccc4)[C@@H]4[C@]5(OC(C)=O)CO[C@@H]5C[C@H](O)[C@@]4(C)C(=O)[C@H](OC(C)=O)C(=C2C)C3(C)C)[C@@H](NC(=O)c2ccccc2)c2ccccc2)O1 (some centres not stated) | > 33.3 | > 9.85 | > 33.3 | > 33.3 | > 33.3 | > 26.8 | > 33.3 | 0.0991 | 0.671 | 0.586 | > 33.3 | 0.0426 | 0.0472 | 0.175 | 0.103 | 0.268
Nc1ncnc2c1N=C(c1ccc3c(c1)OCO3)CC(c1ccc([N+](=O)[O-])cc1)N2 (configuration not stated) | 67.9 | > 100 | > 100 | 49 | > 100 | > 100 | > 100 | 2.37 | 82.9 | 1.68 | 53.1 | 76.3 | 0.194 | 69.7 | 92 | 31.1
COc1cccc(N2C(=O)C3c4[nH]c5ccccc5c4C4CCCC4C3C2=O)c1 (configuration not stated) | 4.09 | > 10 | > 10 | > 10 | > 10 | > 10 | > 10 | – | – | – | > 10 | – | – | – | – | –
COc1ccc2c(CN3CCCC[C@H]3C(=O)O)cc3cc4c(cc3c2c1)OCO4 | – | 2.5 | 2.23 | 7.24 | 4.25 | 2.88 | 7.14 | – | 1.25 | 2.6 | 6.6 | 0.359 | 2.57 | 1.1 | 0.494 | 2.53
CCCCOC(=O)N1CCN(/[N+]([O-])=N/Oc2ccc([N+](=O)[O-])cc2[N+](=O)[O-])CC1 | > 100 | 19.8 | > 100 | 5.47 | 64.2 | 5.99 | 30.8 | > 100 | 4.91 | 4.87 | 17.7 | 4.94 | 2.3 | 21.1 | 2.63 | 14
COC(C(=O)NN)c1ccccc1 (configuration not stated) | > 100 | > 100 | > 100 | > 100 | > 100 | – | > 100 | – | – | – | > 100 | – | – | – | – | –
Cc1cc([N+](=O)[O-])c(NS(=O)(=O)c2cccc(C(=O)O)c2)cc1-c1cccnc1 | > 100 | > 100 | > 100 | > 100 | > 100 | > 100 | > 100 | > 100 | > 100 | > 100 | > 100 | > 100 | > 100 | > 100 | > 100 | > 100
COC(=O)C1(Cc2ccc3c(c2)CCC3)Cc2ccccc2C1O (configuration not stated) | 75.9 | 29.8 | 38.1 | 80.4 | 49.2 | 33.8 | 29.2 | – | – | – | 35.1 | – | – | – | – | –
CC1(C)CC(O)C(C)(C)[C@@H](O)C1 (some centres not stated) | – | > 100 | > 100 | – | > 100 | > 100 | > 100 | – | – | – | > 100 | – | – | – | – | –
Cc1ccccc1OCC(O)CN1CCN(c2ccc(Cl)cc2)CC1 (configuration not stated) | 40.1 | 30.2 | 34.1 | 40.8 | 84 | 30.3 | 25.9 | 14.3 | 16.3 | 18.3 | 33.3 | 16.7 | 16.3 | 30.2 | 15.7 | 11.7
